We go through 3 compounds from patent US12180252B2, “Peptide derived from PEP27 peptide and uses thereof” (priority 2021, dated 2024).

Each structure is given as a SMILES string. In brackets after ≈: the same amount, converted by molar mass.

What all share (experiment): microbe, parasite or virus in culture
The test system of experiment [1] is P. aeruginosa 4007. Conditions: Pseudomonas aeruginosa, 4007, 18 h, read-out: Minimal inhibitory concentration. The method, then:
(§1) In order to evaluate the antimicrobial activity of the peptides prepared by the method of above 1, a minimal inhibitory concentration (MIC) value as the minimum concentration of a peptide, in which cells are not divided, was measured.
(§2) Specifically, the strains shown in Table 3 below were purchased, cultured in a medium having a constitutional composition suitable for each strain to a mid-log phase, and then diluted to a concentration of 2×10^4 cells/100 μl to prepare the product on a micro-titration plate (Nunc, USA). Then, PEP27, PEP27-1, PEP27-2 or PEP27-5 peptide synthesized in the above 1 was added to each well by serial dilution ½ times, followed by incubation at 37° C. for 18 hours.
(§3) Specifically, subject strains were prepared by the method of above 2, and were treated with the antibiotics, that is, meropenem, ceftazidime, ceftriaxone or vancomycin, respectively, followed by determining MICs of the antibiotics.

Experiment [2] deals with P. aeruginosa 4891. Conditions: Pseudomonas aeruginosa, 4891, 18 h, read-out: Minimal inhibitory concentration. The method, then:
as §1, §2, §3

In experiment [3] the test system is P. aeruginosa ATCC15692. Conditions: Pseudomonas aeruginosa, ATCC15692, 18 h, read-out: Minimal inhibitory concentration. The protocol:
as §1, §2, §3

For experiment [4], the system named is P. aeruginosa ATCC27853. Conditions: Pseudomonas aeruginosa, ATCC27853, 18 h, read-out: Minimal inhibitory concentration. The protocol: as §1, §2, §3
The subject of experiment [5] is S. aureus ATCC25923. Conditions: Staphylococcus aureus, ATCC25923, 18 h, read-out: Minimal inhibitory concentration. The method, then: as §1, §2, §3
Experiment [6] deals with S. aureus ATCC29213. Conditions: Staphylococcus aureus, ATCC29213, 18 h, read-out: Minimal inhibitory concentration. The protocol:
as §1, §2, §3

Experiment [7] concerns S. aureus CCARM3089. Conditions: Staphylococcus aureus, CCARM3089, 18 h, read-out: Minimal inhibitory concentration. The protocol: as §1, §2, §3
Experiment [8] has as its system S. aureus CCARM3090. Conditions: Staphylococcus aureus, CCARM3090, 18 h, read-out: Minimal inhibitory concentration. The method, then:
as §1, §2, §3

Experiment [9] concerns S. aureus CCARM3518. Conditions: Staphylococcus aureus, CCARM3518, 18 h, read-out: Minimal inhibitory concentration. The protocol: as §1, §2, §3
Experiment [10] concerns S. aureus MW2. Conditions: Staphylococcus aureus, MW2, 18 h, read-out: Minimal inhibitory concentration. The method, then:
as §1, §2, §3

Experiment [11] has as its system S. aureus USA300. Conditions: Staphylococcus aureus, USA300, 18 h, read-out: Minimal inhibitory concentration. The protocol:
as §1, §2, §3

Turning to `CC(C)(O/N=C(\C(=O)N[C@@H]1C(=O)N2C(C(=O)[O-])=C(C[n+]3ccccc3)CS[C@H]12)c1csc(N)n1)C(=O)O` [Ceftazidime, ceftazidime], the MIC in [1] came out at 16 µM (≈ 8.75 µg/mL); in [2], 16 µM (≈ 8.75 µg/mL); in experiment [3], 4 µM (≈ 2.19 µg/mL); in experiment [4], 2 µM (≈ 1.09 µg/mL); in [5] it was 16 µM (≈ 8.75 µg/mL); in experiment [6] it was 3 µM (≈ 1.64 µg/mL). Moreover, the MIC in [7] was 512 µM (≈ 280 µg/mL); in experiment [8] it was 512 µM (≈ 280 µg/mL); in [9] it was 64 µM (≈ 35 µg/mL); in [10] it was 32 µM (≈ 17.5 µg/mL); in experiment [11], 32 µM (≈ 17.5 µg/mL).

Take `C[C@@H](O)[C@H]1C(=O)N2C(C(=O)O)=C(S[C@@H]3CN[C@H](C(=O)N(C)C)C3)[C@H](C)[C@H]12` [Meropenem, meropenem]: the MIC in [1] stood at 4 µM (≈ 1.53 µg/mL); in experiment [2], 8 µM (≈ 3.07 µg/mL); in experiment [3] it was 2 µM (≈ 0.767 µg/mL); in [4], 2 µM (≈ 0.767 µg/mL); in experiment [5], 2 µM (≈ 0.767 µg/mL); in [6] it was 2 µM (≈ 0.767 µg/mL). The MIC is 64 µM (≈ 24.5 µg/mL) in experiment [7]; 128 µM (≈ 49.1 µg/mL) in experiment [8]; 64 µM (≈ 24.5 µg/mL) in experiment [9]; 2 µM (≈ 0.767 µg/mL) in experiment [10]; 2 µM (≈ 0.767 µg/mL) in experiment [11].

As to `CN[C@H](CC(C)C)C(=O)N[C@H]1C(=O)N[C@@H](CC(N)=O)C(=O)N[C@H]2C(=O)N[C@H]3C(=O)N[C@H](C(=O)N[C@H](C(=O)O)c4cc(O)cc(O)c4-c4cc3ccc4O)[C@H](O)c3ccc(c(Cl)c3)Oc3cc2cc(c3O[C@@H]2O[C@H](CO)[C@@H](O)[C@H](O)[C@H]2O[C@H]2C[C@](C)(N)[C@H](O)[C@H](C)O2)Oc2ccc(cc2Cl)[C@H]1O` [Vancomycin, vancomycin], the MIC in experiment [1] was determined as 512 µM (≈ 742 µg/mL); in experiment [2], 512 µM (≈ 742 µg/mL); in [3], 512 µM (≈ 742 µg/mL); in [4], 256 µM (≈ 371 µg/mL); in experiment [5] it was 0.25 µM (≈ 0.362 µg/mL); in experiment [6], 0.25 µM (≈ 0.362 µg/mL). In addition, the MIC amounted to 0.25 µM (≈ 0.362 µg/mL) in experiment [7]; 0.5 µM (≈ 0.725 µg/mL) in [8]; 0.25 µM (≈ 0.362 µg/mL) in experiment [9]; 0.25 µM (≈ 0.362 µg/mL) in [10]; 0.25 µM (≈ 0.362 µg/mL) in experiment [11].
